# Measured values from PubChem BioAssay AID228 (DTP/NCI, 2004).
# Values joined by “and” are separate entries in the source; they are usually repeats but may differ in a detail not shown here. Identical values can stand only once. Results filed as inconclusive are left out.
# System: BDF1 mice, Friend leukemia sc, tumor weight T/C
# Test: NCI In Vivo Anticancer Drug Screen. Data for tumor model Friend Virus Leukemia (Solid) (subcutaneous) in B6D2F1 (BDF1) mice
# Details: endpoint: mean tumor weight, higher = larger tumour
# Experimental: The antitumor activity of compounds was measured in mice bearing transplantable tumors. Survival or tumor size were measured and the results are expressed as the measurement made in the treated group (T) divided by the measurement made in the vehicle treated control group (C). The tumor model used in this assay is Friend Virus Leukemia (Solid) (subcutaneous) in B6D2F1 (BDF1) mice
# [1] = dose: 1.0 mg/kg/injection, schedule: Q01DX011 (ip), vehicle: carboxymethylcellulose (CMC)
# [2] = dose: 375.0 mg/kg/injection, schedule: Q01DX011 (sc), vehicle: steriod suspending solution
# [3] = dose: 500.0 mg/kg/injection, schedule: Q01DX011 (sc), vehicle: steriod suspending solution
# [4] = dose: 750.0 mg/kg/injection, schedule: Q01DX011 (sc), vehicle: steriod suspending solution
# [5] = dose: 10.0 mg/kg/injection, schedule: Q01DX011 (sc), vehicle: steriod suspending solution
# [6] = dose: 25.0 mg/kg/injection, schedule: Q01DX011 (ip), vehicle: carboxymethylcellulose (CMC)
# [7] = dose: 50.0 mg/kg/injection, schedule: Q01DX011 (ip), vehicle: carboxymethylcellulose (CMC)
# [8] = dose: 100.0 mg/kg/injection, schedule: Q01DX011 (ip), vehicle: carboxymethylcellulose (CMC)
# [9] = dose: 12.5 mg/kg/injection, schedule: Q01DX011 (ip), vehicle: carboxymethylcellulose (CMC)
smiles,measurement,setting,value
Nc1nc(=S)c2ncn(C3OC(CO)C(O)C3O)c2[nH]1 (configuration not stated),T/C,"dose: 0.18 mg/kg/injection, schedule: Q01DX011 (ip), vehicle: carboxymethylcellulose (CMC)",74 % of control
same,T/C,"dose: 0.37 mg/kg/injection, schedule: Q01DX011 (ip), vehicle: carboxymethylcellulose (CMC)",63 % of control
same,T/C,"dose: 0.6 mg/kg/injection, schedule: Q01DX011 (ip), vehicle: carboxymethylcellulose (CMC)",53 % of control
same,T/C,[1],36 % of control
same,T/C,"dose: 1.5 mg/kg/injection, schedule: Q01DX011 (ip), vehicle: carboxymethylcellulose (CMC)",31 % of control and 48 % of control
Clc1ccc(C(c2ccccc2Cl)C(Cl)Cl)cc1 (configuration not stated),T/C,[2],163 % of control
same,T/C,[3],210 % of control
same,T/C,[4],155 % of control
C[C@]12CC[C@@H]3c4ccc(O)cc4CC[C@H]3[C@@H]1CC[C@@H]2O,T/C,"dose: 1.0 mg/kg/injection, schedule: Q01DX011 (sc), vehicle: steriod suspending solution",74 % of control
same,T/C,"dose: 5.0 mg/kg/injection, schedule: Q01DX011 (sc), vehicle: steriod suspending solution",104 % of control
same,T/C,[5],71 % of control
same,T/C,"dose: 20.0 mg/kg/injection, schedule: Q01DX011 (sc), vehicle: steriod suspending solution",73 % of control
same,T/C,"dose: 40.0 mg/kg/injection, schedule: Q01DX011 (sc), vehicle: steriod suspending solution",61 % of control
same,T/C,"dose: 80.0 mg/kg/injection, schedule: Q01DX011 (sc), vehicle: steriod suspending solution",75 % of control
same,T/C,"dose: 100.0 mg/kg/injection, schedule: Q01DX011 (sc), vehicle: steriod suspending solution",103 % of control
same,T/C,"dose: 150.0 mg/kg/injection, schedule: Q01DX011 (sc), vehicle: steriod suspending solution",106 % of control
same,T/C,"dose: 200.0 mg/kg/injection, schedule: Q01DX011 (sc), vehicle: steriod suspending solution",101 % of control
same,T/C,"dose: 400.0 mg/kg/injection, schedule: Q01DX011 (sc), vehicle: steriod suspending solution",110 % of control
same,T/C,[3],86 % of control and 107 % of control
O=NN(CCCl)C(=O)NCCCl,T/C,"dose: 0.81 mg/kg/injection, schedule: Q01DX011 (ip), vehicle: saline",112 % of control
same,T/C,"dose: 1.62 mg/kg/injection, schedule: Q01DX011 (ip), vehicle: saline",102 % of control
same,T/C,"dose: 3.25 mg/kg/injection, schedule: Q01DX011 (ip), vehicle: saline",54 % of control
same,T/C,"dose: 6.5 mg/kg/injection, schedule: Q01DX011 (ip), vehicle: saline",39 % of control
same,T/C,"dose: 10.0 mg/kg/injection, schedule: Q01DX011 (ip), vehicle: saline",88 % of control
same,T/C,"dose: 15.0 mg/kg/injection, schedule: Q01DX011 (ip), vehicle: saline",51 % of control
same,T/C,"dose: 25.0 mg/kg/injection, schedule: Q01DX011 (ip), vehicle: saline",4 % of control
CS(=O)(=O)OCCCCCCCCCOS(C)(=O)=O,T/C,"dose: 18.75 mg/kg/injection, schedule: Q01DX011 (ip), vehicle: carboxymethylcellulose (CMC)",81 % of control
same,T/C,"dose: 37.5 mg/kg/injection, schedule: Q01DX011 (ip), vehicle: carboxymethylcellulose (CMC)",51 % of control
same,T/C,"dose: 75.0 mg/kg/injection, schedule: Q01DX011 (ip), vehicle: carboxymethylcellulose (CMC)",49 % of control
CCN(CC)CC(C)Nc1ccc(C)c2sc3ccccc3c(=O)c12 (configuration not stated),T/C,[6],103 % of control
same,T/C,[7],60 % of control
CC1CCOS(=O)O1 (configuration not stated),T/C,"dose: 10.0 mg/kg/injection, schedule: Q01DX011 (ip), vehicle: carboxymethylcellulose (CMC)",123 % of control
same,T/C,"dose: 20.0 mg/kg/injection, schedule: Q01DX011 (ip), vehicle: carboxymethylcellulose (CMC)",84 % of control
same,T/C,"dose: 40.0 mg/kg/injection, schedule: Q01DX011 (ip), vehicle: carboxymethylcellulose (CMC)",72 % of control
same,T/C,"dose: 80.0 mg/kg/injection, schedule: Q01DX011 (ip), vehicle: carboxymethylcellulose (CMC)",32 % of control
NC(=O)/C=C\C(=O)O (tested in a mixture with another compound),T/C,"dose: 31.0 mg/kg/injection, schedule: Q#A X022 (ip), vehicle: carboxymethylcellulose (CMC)",85 % of control
same,T/C,"dose: 62.5 mg/kg/injection, schedule: Q#A X022 (ip), vehicle: carboxymethylcellulose (CMC)",75 % of control
same,T/C,"dose: 125.0 mg/kg/injection, schedule: Q#A X022 (ip), vehicle: carboxymethylcellulose (CMC)",65 % of control
same,T/C,"dose: 250.0 mg/kg/injection, schedule: Q#A X022 (ip), vehicle: carboxymethylcellulose (CMC)",58 % of control
Cc1nc2nc(N)nc(N)c2nc1C,T/C,"dose: 13.12 mg/kg/injection, schedule: Q01DX011 (ip), vehicle: carboxymethylcellulose (CMC)",103 % of control
same,T/C,"dose: 26.25 mg/kg/injection, schedule: Q01DX011 (ip), vehicle: carboxymethylcellulose (CMC)",89 % of control
same,T/C,"dose: 52.5 mg/kg/injection, schedule: Q01DX011 (ip), vehicle: carboxymethylcellulose (CMC)",52 % of control
same,T/C,"dose: 105.0 mg/kg/injection, schedule: Q01DX011 (ip), vehicle: carboxymethylcellulose (CMC)",61 % of control
CCCCn1cnc2c(=S)nc(N)[nH]c21,T/C,"dose: 0.25 mg/kg/injection, schedule: Q01DX011 (ip), vehicle: carboxymethylcellulose (CMC)",87 % of control
same,T/C,"dose: 0.5 mg/kg/injection, schedule: Q01DX011 (ip), vehicle: carboxymethylcellulose (CMC)",53 % of control
same,T/C,[1],32 % of control and 40 % of control
same,T/C,"dose: 3.0 mg/kg/injection, schedule: Q01DX011 (ip), vehicle: carboxymethylcellulose (CMC)",6 % of control and 7 % of control
same,T/C,"dose: 7.0 mg/kg/injection, schedule: Q01DX011 (ip), vehicle: carboxymethylcellulose (CMC)",12 % of control
same,T/C,"dose: 15.0 mg/kg/injection, schedule: Q01DX011 (ip), vehicle: carboxymethylcellulose (CMC)",9 % of control
CO[C@H]1CC[C@@]2(C)[C@@H](CC[C@H]3[C@@H]4C[C@H](O)C[C@@]4(C)CC[C@@H]32)C1,T/C,[5],108 % of control
same,T/C,"dose: 15.0 mg/kg/injection, schedule: Q01DX011 (sc), vehicle: steriod suspending solution",104 % of control
CC(C)(C)c1ccc(S)cc1,T/C,[6],181 % of control
same,T/C,[7],121 % of control
same,T/C,[8],85 % of control
CNC=O,T/C,[9],80 % of control
same,T/C,[6],57 % of control and 38 % of control
same,T/C,"dose: 41.62 mg/kg/injection, schedule: Q01DX011 (ip), vehicle: carboxymethylcellulose (CMC)",124 % of control
same,T/C,"dose: 42.0 mg/kg/injection, schedule: Q01DX011 (ip), vehicle: carboxymethylcellulose (CMC)",92 % of control
same,T/C,"dose: 43.0 mg/kg/injection, schedule: Q01DX011 (ip), vehicle: carboxymethylcellulose (CMC)",79 % of control
same,T/C,[7],43 % of control
same,T/C,"dose: 83.25 mg/kg/injection, schedule: Q01DX011 (ip), vehicle: carboxymethylcellulose (CMC)",92 % of control
same,T/C,"dose: 85.0 mg/kg/injection, schedule: Q01DX011 (ip), vehicle: carboxymethylcellulose (CMC)",91 % of control
same,T/C,"dose: 86.0 mg/kg/injection, schedule: Q01DX011 (ip), vehicle: carboxymethylcellulose (CMC)",109 % of control
same,T/C,[8],53 % of control
same,T/C,"dose: 176.5 mg/kg/injection, schedule: Q01DX011 (ip), vehicle: carboxymethylcellulose (CMC)",91 % of control
same,T/C,"dose: 200.0 mg/kg/injection, schedule: Q01DX011 (ip), vehicle: carboxymethylcellulose (CMC)",39 % of control
same,T/C,"dose: 250.0 mg/kg/injection, schedule: Q01DX011 (ip), vehicle: carboxymethylcellulose (CMC)",84 % of control
same,T/C,"dose: 275.0 mg/kg/injection, schedule: Q01DX011 (ip), vehicle: carboxymethylcellulose (CMC)",57 % of control
same,T/C,"dose: 343.0 mg/kg/injection, schedule: Q01DX011 (ip), vehicle: carboxymethylcellulose (CMC)",41 % of control
CCc1nc(N)nc(N)c1-c1ccc(Cl)cc1,T/C,"dose: 6.25 mg/kg/injection, schedule: Q01DX011 (ip), vehicle: carboxymethylcellulose (CMC)",124 % of control
same,T/C,[9],85 % of control
same,T/C,[6],113 % of control
same,T/C,[7],95 % of control
c1ccc(CNc2ncnc3[nH]ncc23)cc1,T/C,"dose: 1.12 mg/kg/injection, schedule: Q01DX011 (ip), vehicle: carboxymethylcellulose (CMC)",109 % of control
same,T/C,"dose: 2.25 mg/kg/injection, schedule: Q01DX011 (ip), vehicle: carboxymethylcellulose (CMC)",77 % of control
same,T/C,"dose: 4.5 mg/kg/injection, schedule: Q01DX011 (ip), vehicle: carboxymethylcellulose (CMC)",78 % of control
same,T/C,"dose: 9.0 mg/kg/injection, schedule: Q01DX011 (ip), vehicle: carboxymethylcellulose (CMC)",117 % of control
same,T/C,"dose: 18.5 mg/kg/injection, schedule: Q01DX011 (ip), vehicle: carboxymethylcellulose (CMC)",15 % of control
CCCCCC(=O)O[C@]1(C(C)=O)CC[C@H]2[C@@H]3CCC4=CC(=O)CC[C@]4(C)[C@H]3CC[C@@]21C,T/C,"dose: 125.0 mg/kg/injection, schedule: Q01DX011 (sc), vehicle: steriod suspending solution",173 % of control
same,T/C,"dose: 250.0 mg/kg/injection, schedule: Q01DX011 (sc), vehicle: steriod suspending solution",166 % of control
same,T/C,[2],156 % of control
same,T/C,[4],124 % of control
